The text below walks through data of patent US9481670B2, “Triazine compounds” (Sphaera Pharma PTE. Ltd., priority 2011, dated 2016).

In one data set the target is T1, PI3K alpha (Homo sapiens, UniProt P42336).
T1 construct: purchased Millipore Upstate
The data set can be described thus: P110 Alpha TR-FRET Assay (PI3K alpha kinase assay, HTRF Transcreener ADP Assay). The data set is classed as biochemical. Particulars: PI3K (WT). Put shortly:
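Enzyme (50 ng) and compound were preincubated 20 min in HEPES pH 7.5 buffer containing MgCl2, DTT and vanadate before 10 μM ATP plus 5 μM PIP2 substrate was added for 20 min. ADP produced was quantified by TR-FRET (ADP-d2, anti-ADP cryptate, 1 h).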
For orientation: TR-FRET usually uses a lanthanide donor and a delayed reading to cut background.

Data set [1] can be described thus: Pharmacokinetic study, oral dosing, plasma concentration by LC-MS/MS. The data set is classed as in vivo. The conditions noted are these: female swiss mice, fasted overnight, oral 3 mg/kg in PEG 400, plasma. How it is done: For pharmacokinetic study female swiss mice were used. The swiss mice weighing 25-30 g, fasted overnight, were orally dosed at 3 mg/kg body weight of compound in PEG 400. Blood samples (40 μl) were collected from each mouse by retro-orbital bleeding at 0, 0.16, 0.5, 1, 2, 4, 6 and 8 h after dosing into the tubes containing heparin as an anticoagulant. The samples were stored in ice and within 1 h after collection samples were centrifuged at 10000 RPM at 4° C. Plasma was collected and stored at −80° C. until analyis. The concentration of compounds in plasma were determined by liquid chromatography-tandem mass spectrometry (LC-MS/MS).
The protein precipitation method was used to extract the compounds. Acetonitrile was added to plasma, vortexed and centrifuged at 10000 RPM at 4° C. The supenatent was collected and injected onto the column. A CTC HTC PAL auto sampler (LEAP Technologies) linked to a Shimadzu SCL-10A VP HTC controller with LC-10AD pumps (Shimadzu), coupled with a Sciex API 3000 triple quadrupole mass spectrometer were used for the LC-MS/MS analysis. Some compounds as per the present invention are represented in the table below, were tested and their PK values are reported in Table 2.

For a further data set, the system named is human tumor xenografts. Particulars: mouse, in vivo; cited from earlier work.

T1 sequence (P42336 whole entry): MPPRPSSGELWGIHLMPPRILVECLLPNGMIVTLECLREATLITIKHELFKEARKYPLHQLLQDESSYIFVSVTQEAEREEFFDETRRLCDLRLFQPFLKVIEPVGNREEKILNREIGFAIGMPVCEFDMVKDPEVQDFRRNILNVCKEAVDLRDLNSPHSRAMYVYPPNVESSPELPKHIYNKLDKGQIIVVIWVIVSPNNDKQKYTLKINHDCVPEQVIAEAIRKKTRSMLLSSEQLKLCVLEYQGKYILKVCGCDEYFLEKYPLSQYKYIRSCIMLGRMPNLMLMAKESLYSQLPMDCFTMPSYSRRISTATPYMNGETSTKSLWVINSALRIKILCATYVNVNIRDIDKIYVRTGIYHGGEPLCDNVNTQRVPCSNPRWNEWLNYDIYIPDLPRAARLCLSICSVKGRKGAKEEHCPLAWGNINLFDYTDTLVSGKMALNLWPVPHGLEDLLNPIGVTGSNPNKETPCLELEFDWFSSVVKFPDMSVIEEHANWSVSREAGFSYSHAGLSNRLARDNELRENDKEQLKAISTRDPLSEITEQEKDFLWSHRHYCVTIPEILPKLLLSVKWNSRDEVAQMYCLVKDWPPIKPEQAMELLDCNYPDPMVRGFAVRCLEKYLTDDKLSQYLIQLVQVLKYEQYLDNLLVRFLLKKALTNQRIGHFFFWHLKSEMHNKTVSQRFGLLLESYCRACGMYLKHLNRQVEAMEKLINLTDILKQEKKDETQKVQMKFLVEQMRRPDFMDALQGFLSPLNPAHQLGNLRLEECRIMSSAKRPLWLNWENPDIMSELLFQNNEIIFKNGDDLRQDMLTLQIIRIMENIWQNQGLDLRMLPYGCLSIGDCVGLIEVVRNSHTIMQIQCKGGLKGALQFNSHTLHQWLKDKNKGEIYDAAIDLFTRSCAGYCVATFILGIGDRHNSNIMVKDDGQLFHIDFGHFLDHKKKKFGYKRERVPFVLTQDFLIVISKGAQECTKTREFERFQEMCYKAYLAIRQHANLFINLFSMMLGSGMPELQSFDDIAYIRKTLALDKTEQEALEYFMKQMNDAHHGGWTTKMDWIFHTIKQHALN
T1 sequence (P27986 whole entry partner): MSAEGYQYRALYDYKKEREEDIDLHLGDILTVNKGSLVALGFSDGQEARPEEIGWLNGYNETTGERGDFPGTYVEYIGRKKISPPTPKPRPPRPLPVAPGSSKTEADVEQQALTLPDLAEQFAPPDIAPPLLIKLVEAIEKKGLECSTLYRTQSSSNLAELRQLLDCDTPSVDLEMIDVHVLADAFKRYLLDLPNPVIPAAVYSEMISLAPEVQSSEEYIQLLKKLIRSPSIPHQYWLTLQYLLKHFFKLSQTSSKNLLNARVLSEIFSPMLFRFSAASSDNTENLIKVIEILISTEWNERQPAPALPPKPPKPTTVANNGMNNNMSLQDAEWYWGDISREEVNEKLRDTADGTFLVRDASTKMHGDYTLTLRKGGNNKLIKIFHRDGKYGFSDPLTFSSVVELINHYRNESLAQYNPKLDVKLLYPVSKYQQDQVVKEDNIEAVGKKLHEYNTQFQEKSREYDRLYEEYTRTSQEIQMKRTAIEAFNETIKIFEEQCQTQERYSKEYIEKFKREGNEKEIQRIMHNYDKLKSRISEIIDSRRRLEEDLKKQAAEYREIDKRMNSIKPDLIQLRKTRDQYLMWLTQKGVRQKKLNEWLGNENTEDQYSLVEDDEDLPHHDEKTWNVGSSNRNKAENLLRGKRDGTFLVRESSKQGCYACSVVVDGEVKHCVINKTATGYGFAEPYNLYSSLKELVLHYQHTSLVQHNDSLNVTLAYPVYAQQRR

By IC50 is commonly meant the midpoint of a concentration-inhibition curve. A lower IC50 goes with inhibition by little substance. The term Cmax denotes the highest concentration seen after dosing. By Tmax is commonly meant the time from dosing to the highest level. `CN(C)C(=O)N1CCC(Oc2nc(-c3cccc4[nH]ncc34)nc(N3CCOCC3)n2)CC1` [Compound 1126, 4-14-{[4-1-(1H-indazol-4-yl)-6-5-(morpholin-4-yl)-1,3,5-triazin-2-yl]oxy}-N,N-dimethylpiperidine-1-carboxamide] came in with a 50% inhibitory concentration (IC50) against PI3K alpha of under 5 µM. In data set [1], the AUC is 1618 nM-hr, the highest concentration (Cmax) was 535 nM, the “Elimination t1/2” value stood at 3.15 h and the time of peak concentration (Tmax) worked out at 0.83 h.
Consider `CN(C)C(=O)[C@H]1CC[C@H](Oc2nc(-c3cccc4[nH]ncc34)nc(N3CCOCC3)n2)CC1` [Compound 1144, (1r,4r)-4-21-{[4-1-(1H-indazol-4-yl)-6-5-(morpholin-4-yl)-1,3,5-triazin-2-yl]oxy}-N,N-dimethylcyclohexane-1-carboxamide], for which the concentration for half-maximal inhibition (IC50) on PI3K alpha was under 5 µM. For the same compound, in data set [1], the AUC is 5849 nM-hr, the peak level (Cmax) was 1660 nM, the “Elimination t1/2” value was found to be 4.34 h and the Tmax turned out to be 1.33 h.
Consider `O=c1cc(N2CCOCC2)oc2c(-c3ccccc3)cccc12` [LY294002], for which, in the data set with human tumor xenografts, the tolerability entry was “well-tolerated”.
